Test results: patent US10072029B2, “Crystalline form of a proteasome inhibitor” (Millennium Pharmaceuticals, Inc., priority 2015, dated 2018)

How the values were obtained:
[1] = Chemical stability assessment, 60/75 stress test, HPLC; assay type: physicochemical
Experimental: The chemical stability assessment was performed on crystalline Pattern B using a 60/75 stress test (The International Conference on Harmonisation of Technical Requirements for Registration of Pharmaceuticals for Human Use, Stability Testing of New Drug Substances and Products, Q1A(R2), 2003). Samples were exposed to 60° C./75% relative humidity condition for 2 weeks and post-stress materials were analyzed by HPLC. Data at time-zero was also collected for all samples and served as references. The following table summarizes stability data obtained (peak area % measured by HPLC) for crystalline Pattern B.

[2] = target: β2 site of the 20S proteasome (Homo sapiens, UniProt Q99436); details: at higher concentrations; cited from earlier work
[3] = system: kinases; details: panel of kinases; cited from earlier work
[4] = target: β1 site of the 20S proteasome (Homo sapiens, UniProt P28072); details: at higher concentrations; cited from earlier work
[5] = target: receptors; details: panel of receptors; cited from earlier work

Structure (SMILES): CC(C)C[C@H](NC(=O)CNC(=O)c1cc(Cl)ccc1Cl)B1OB([C@H](CC(C)C)NC(=O)CNC(=O)c2cc(Cl)ccc2Cl)OB([C@H](CC(C)C)NC(=O)CNC(=O)c2cc(Cl)ccc2Cl)O1 [Crystalline Pattern B, N,N′,N″-[2,4,6-boroxintriyltris[[(1R)-3-methylbutylidene]imino(2-oxo-2,1-ethanediyl)]]tris(2,5-dichlorobenzamide)]
- % at 1 wk (peak area % measured by HPLC) ([1]; 60° C./75% relative humidity, 1 wk): 94.2%
- % at 2 wk (peak area % measured by HPLC) ([1]; 60° C./75% relative humidity, 2 wk): 79.5%
- % at t0 (peak area % measured by HPLC) ([1]; time-zero reference): 99.3%

Structure (SMILES): CC(C)C[C@H](NC(=O)CNC(=O)c1cc(Cl)ccc1Cl)B(O)O [Ixazomib, [(1R)-1-({[(2,5-dichlorobenzoyl)amino]acetyl}amino)-3-methylbutyl]boronic acid]
- inhibition of the activity of the β2 site [2]: inhibits the activity
- IC50 [3]: > 10 µM
- inhibition of the activity of the β1 site [4]: inhibits the activity
- IC50 [5]: > 10 µM
